Laboratory results as given in ChEMBL document CHEMBL3045817, “Magnetic resonance assays of haloperidol in human serum albumin” (Med Chem Res, 2011).

How the values were obtained:
[1] = Bioavailability in Homo sapiens (human) at 2.5 mg, intranasal after 15 min; type: ADME, organism-based; conditions: in vivo, inhaled or intranasal
[2] = Bioavailability in Homo sapiens (human) at 2.5 mg, intramuscular after 15 min; type: ADME, organism-based; conditions: in vivo, im
[3] = Plasma protein binding in Homo sapiens (human); type: ADME, cell-free; conditions: read-out: PPB (converted)
Albumin = Albumin (Homo sapiens, UniProt P02768); assay: Binding affinity to Homo sapiens (human) serum albumin at 1.5 to 800 ug/ml by NMR analysis; type: ADME; conditions: isolated protein
Sequence of Albumin (P02768 whole entry): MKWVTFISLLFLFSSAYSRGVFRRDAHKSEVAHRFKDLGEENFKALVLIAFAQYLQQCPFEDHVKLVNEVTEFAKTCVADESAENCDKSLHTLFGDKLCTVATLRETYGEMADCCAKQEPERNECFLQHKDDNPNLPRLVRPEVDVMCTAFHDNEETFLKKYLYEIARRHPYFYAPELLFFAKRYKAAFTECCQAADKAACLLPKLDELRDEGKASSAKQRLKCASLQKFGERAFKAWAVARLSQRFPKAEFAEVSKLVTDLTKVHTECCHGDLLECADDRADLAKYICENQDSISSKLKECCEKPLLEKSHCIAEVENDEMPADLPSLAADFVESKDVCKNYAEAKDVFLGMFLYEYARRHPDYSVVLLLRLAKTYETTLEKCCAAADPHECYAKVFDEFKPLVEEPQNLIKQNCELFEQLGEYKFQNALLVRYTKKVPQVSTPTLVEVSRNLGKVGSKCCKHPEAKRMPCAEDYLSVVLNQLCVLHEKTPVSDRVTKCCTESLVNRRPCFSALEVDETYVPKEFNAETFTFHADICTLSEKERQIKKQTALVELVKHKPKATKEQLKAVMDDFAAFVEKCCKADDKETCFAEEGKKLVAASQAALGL

Brain = assay: Drug uptake in healthy Homo sapiens (human) brain by NMR analysis; type: ADME, tissue-based
[4] = Drug uptake in depression pateint brain at 20 mg/day after 3 days by NMR analysis; type: ADME; conditions: human, read-out: Drug uptake

O=C(CCCN1CCC(O)(c2ccc(Cl)cc2)CC1)c1ccc(F)cc1 [HALOPERIDOL]
bioavailability [1]: 63.8%
bioavailability [2]: 48.6%
fraction unbound [3]: 0.1

O=C(CCCN1CCC(O)(c2ccc(Cl)cc2)CC1)c1ccc([19F])cc1 [[19F]-HALOPERIDOL]
Activity (Albumin): Active

CN1CCN(CCCN2c3ccccc3Sc3ccc(C(F)(F)F)cc32)CC1 [TRIFLUOPERAZINE]
Drug uptake (Brain): 4 µg/mL

OCCN1CCN(CCCN2c3ccccc3Sc3ccc(C(F)(F)F)cc32)CC1 [FLUPHENAZINE]
Drug uptake (Brain): 4 µg/mL

Fc1ccc([C@@H]2CCNC[C@H]2COc2ccc3c(c2)OCO3)cc1 [PAROXETINE]
concentration at 72 h [4]: 6000 ng/mL
